Experimental data published in patent US12070464B2, “Methods of treating myeloproliferative disorders” (priority 2019, dated 2024).
Where two headings read alike, the source gives them in different places.

What was measured:
[1] = system: myelofibrosis patients; conditions: cited from earlier work
[2] = system: CD34+ cells isolated from the bone marrow of two healthy donors; assay: Megakaryocyte differentiation and proliferation, alone and with ruxolitinib, 10 days (FACS); format: cell-based; conditions: 240 h
Source text: The cells were then harvested for FACS analysis with live/dead stain and gating with CD34 (progenitor marker) and CD41a and CD42b (mature megakaryocyte markers).

N#CC[C@H](C1CCCC1)n1cc(-c2ncnc3[nH]ccc23)cn1 [Ruxolitinib, (R)-3-(4-(7H-pyrrolo[2,3-d]pyrimidin-4-yl)-1H-pyrazol-1-yl)-3-cyclopentylpropanenitrile phosphate, reference compound]
effect on mutant allele burden and bone marrow fibrosis ([1]; Curr Hematol Malig Rep 2017): does not affect the mutant allele burden or bone marrow fibrosis
effect on red blood cell production and hemoglobin levels ([1]; in vivo): known to decrease red blood cell production and hemoglobin levels
EC50 ([2]; 10 days, Donor 1, percent of cells double positive for CD41a and CD42b, read-out: Megakaryocyte differentiation EC50): 517 nM
EC50 ([2]; 10 days, Donor 1, read-out: Megakaryocyte live count EC50): 312 nM
EC50 ([2]; 10 days, Donor 1, read-out: Total live count EC50): 288 nM
EC50 ([2]; 10 days, Donor 1, read-out: Viability EC50): 676 nM
EC50 ([2]; 10 days, Donor 2, percent of cells double positive for CD41a and CD42b, read-out: Megakaryocyte differentiation EC50): 535 nM
EC50 ([2]; 10 days, Donor 2, read-out: Megakaryocyte live count EC50): 258 nM
EC50 ([2]; 10 days, Donor 2, read-out: Total live count EC50): 259 nM
EC50 ([2]; 10 days, Donor 2, read-out: Viability EC50): 611 nM
EC50 ([2]; 10 days, Mean of two donors, read-out: Megakaryocyte differentiation EC50): 526 nM
EC50 ([2]; 10 days, Mean of two donors, read-out: Megakaryocyte live count EC50): 285 nM
EC50 ([2]; 10 days, Mean of two donors, read-out: Viability EC50): 644 nM
EC50 ([2]; read-out: Total live count EC50 (overall cell proliferation)): 274 nM
